The text below walks through data of patent publication US10550143B2, “C,O-spiro aryl glycoside compounds, preparation therefor and use thereof” (SHANGHAI INSTITUTE OF MATERIA MEDICA, CHINESE ACADEMY OF …, priority 2015, dated 2020).

The subject of this experiment is SD rats. Kind of experiment: Acute single administration, urinary glucose changes in SD rats. Set-up: Urine glucose concentration / The total amount of glucose excreted: unit not given here. As to conditions: 1 mg/kg oral, after 24 h. The class given is in vivo, rat. As to the method: (1) Acutely Administering Compound to Observed the Urinary Glucose Changes in SD Rats
Thirty-eight male normal SD rats were selected and randomly divided into 5 groups according to body weight and blood glucose, 6-8 in each group. […] After oral gavage, the rats were placed in rats metabolic cages, and urine was collected after 24 h, and the urine volume was recorded, the urine sugar concentration was determined, and urinary sugar content was calculated according to the following formula. Urine content=urinary sugar concentration×urine volume
Glucose levels in urine are measured by the glucose assay kit.
Data were expressed as mean±standard deviation (x±s), and Student's t test was used for statistical analysis of the data, p<0.05 was considered statistically significant.

For `CCc1ccc(Cc2cc3c(cc2Cl)CO[C@]32O[C@H](C)[C@@H](O)[C@H](O)[C@H]2O)s1` [Example A28, (1S,3′R,4′S,5′S,6′R)-6′-methyl-6-((5-ethylthienyl)-2-methyl)-5-chloro-3′,4′,5′,6′-tetrahydro-3H-spiro[isobenzofuran-1,2′-pyran]-3′,4′,5′-triol], for the setting “Table 3”, the “The total amount of glucose excreted” value amounted to 337.10 ± 313.7 and the Urine glucose concentration turned out to be 76.29 ± 71.20. The molecule also registered a Urine volume (Table 3, in mL) of 24 ± 6.63.
